ChEMBL document CHEMBL1799932, “Antimalarial pyrido[1,2-a]benzimidazoles” (J Med Chem, 2011)

What was measured:
Plasmodium berghei [1] = test: Antimalarial activity against GFP-transfected Plasmodium berghei strain ANKA infected in NMRI mouse assessed as reduction in parasitemia at 50 mg/kg, po administered as single dose measured on day 2 by FACS analysis; type: functional; parameters: scale not given: the % may be the effect or the level left
[2] = Metabolic stability in mouse liver microsomes assessed as intrinsic clearance per mg protein after 60 mins by LC-MS analysis; type: ADME, Microsome
[3] = Metabolic stability in human liver microsomes assessed as intrinsic clearance per mg protein after 60 mins by LC-MS analysis; type: ADME, Microsome
[4] = Metabolic stability in rat liver microsomes assessed as intrinsic clearance per mg protein after 60 mins by LC-MS analysis; type: ADME, Microsome
Rattus norvegicus [5] = test: Tmax in fasted Sprague-Dawley rat assessed as 1-(2-Ethylaminoethylamino)-3-[4-(trifluoromethyl)phenyl]- pyrido[1,2-a]benzimidazole-4-carbonitrile level at 20 mg/kg, po after 48 hrs by LC-MS analysis; type: ADME, organism-based; parameters: dose 20 mg/kg, route oral; conditions: in vivo
Rattus norvegicus [6] = test: AUC (0 to tlast) in fasted Sprague-Dawley rat assessed as 1-(2-Ethylaminoethylamino)-3-[4-(trifluoromethyl)phenyl]- pyrido[1,2-a]benzimidazole-4-carbonitrile level at 20 mg/kg, po after 48 hrs by LC-MS analysis; type: ADME, organism-based, Plasma; parameters: time < 48 hr, dose 20 mg/kg, route oral; conditions: in vivo
Rattus norvegicus [7] = test: AUC (0 to tlast) in fasted Sprague-Dawley rat assessed as 1-(2-Ethylaminoethylamino)-3-[4-(trifluoromethyl)phenyl]- pyrido[1,2-a]benzimidazole-4-carbonitrile level at 5 mg/kg, iv after 48 hrs by LC-MS analysis; type: ADME, organism-based, Plasma; parameters: time < 48 hr, dose 5 mg/kg, route intravenous; conditions: in vivo
Rattus norvegicus [8] = test: Cmax in fasted Sprague-Dawley rat assessed as 1-(2-Ethylaminoethylamino)-3-[4-(trifluoromethyl)phenyl]- pyrido[1,2-a]benzimidazole-4-carbonitrile level at 20 mg/kg, po after 48 hrs by LC-MS analysis; type: ADME, organism-based; parameters: dose 20 mg/kg, route oral; conditions: in vivo
Rattus norvegicus [9] = test: Drug excretion in fasted Sprague-Dawley rat urine assessed as 1-(2-Ethylaminoethylamino)-3-[4-(trifluoromethyl)phenyl]- pyrido[1,2-a]benzimidazole-4-carbonitrile level at 20 mg/kg, po after 48 hrs by LC-MS analysis; type: ADME, organism-based; parameters: dose 20 mg/kg, route oral; conditions: in vivo
Plasma [10] = test: Plasma protein binding in human assessed as 1-(2-Ethylaminoethylamino)-3-[4-(trifluoromethyl)phenyl]-pyrido[1,2-a]benzimidazole-4-carbonitrile at 5 mg/kg, iv after 48 hrs by LC-MS analysis; type: ADME, organism-based; parameters: dose 5 mg/kg, route intravenous; conditions: in vivo
Plasma [11] = test: Plasma protein binding in mouse assessed as 1-(2-Ethylaminoethylamino)-3-[4-(trifluoromethyl)phenyl]-pyrido[1,2-a]benzimidazole-4-carbonitrile at 5 mg/kg, iv after 48 hrs by LC-MS analysis; type: ADME, organism-based; parameters: dose 5 mg/kg, route intravenous; conditions: in vivo
Plasmodium berghei [12] = test: Antimalarial activity against GFP-transfected Plasmodium berghei strain ANKA infected in NMRI mouse assessed as reduction in parasitemia at 50 mg/kg, po administered as single dose measured on day 3 by FACS analysis; type: functional; parameters: scale not given: the % may be the effect or the level left
Plasmodium berghei [13] = test: Antimalarial activity against GFP-transfected Plasmodium berghei strain ANKA infected in NMRI mouse assessed as reduction in parasitemia at 50 mg/kg, po administered as single dose measured on day 4 by FACS analysis; type: functional; parameters: scale not given: the % may be the effect or the level left
Plasmodium berghei [14] = test: Antimalarial activity against GFP-transfected Plasmodium berghei strain ANKA infected in NMRI mouse assessed as reduction in parasitemia at 50 mg/kg, po administered as single dose measured on day 5 by FACS analysis; type: functional; parameters: scale not given: the % may be the effect or the level left
Plasmodium berghei [15] = test: Antimalarial activity against GFP-transfected Plasmodium berghei strain ANKA infected in NMRI mouse assessed as reduction in parasitemia at 25 mg/kg, po administered as single dose measured on day 2 by FACS analysis; type: functional; parameters: scale not given: the % may be the effect or the level left
Plasmodium berghei [16] = test: Antimalarial activity against GFP-transfected Plasmodium berghei strain ANKA infected in NMRI mouse assessed as reduction in parasitemia at 25 mg/kg, po administered as single dose measured on day 3 by FACS analysis; type: functional; parameters: scale not given: the % may be the effect or the level left
Plasmodium berghei [17] = test: Antimalarial activity against GFP-transfected Plasmodium berghei strain ANKA infected in NMRI mouse assessed as reduction in parasitemia at 25 mg/kg, po administered as single dose measured on day 4 by FACS analysis; type: functional; parameters: scale not given: the % may be the effect or the level left
Plasmodium berghei [18] = test: Antimalarial activity against GFP-transfected Plasmodium berghei strain ANKA infected in NMRI mouse assessed as reduction in parasitemia at 25 mg/kg, po administered as single dose measured on day 5 by FACS analysis; type: functional; parameters: scale not given: the % may be the effect or the level left
[19] = Metabolic stability in human liver microsomes assessed as degradation half life after 60 mins by LC-MS analysis; type: ADME, Microsome
[20] = Metabolic stability in rat liver microsomes assessed as degradation half life after 60 mins by LC-MS analysis; type: ADME, Microsome
[21] = Metabolic stability in mouse liver microsomes assessed as degradation half life after 60 mins by LC-MS analysis; type: ADME, Microsome
Plasmodium berghei [22] = test: Antimalarial activity against GFP-transfected Plasmodium berghei strain ANKA infected in NMRI mouse assessed as reduction in parasitemia at 3 mg/kg, po administered as multiple dose for 4 days measured 24 hrs after last treatment; type: functional; parameters: scale not given: the % may be the effect or the level left
Plasmodium berghei [23] = test: Antimalarial activity against GFP-transfected Plasmodium berghei strain ANKA infected in NMRI mouse assessed as reduction in parasitemia at 6 mg/kg, po administered as single dose for 4 days measured 24 hrs after last treatment; type: functional; parameters: scale not given: the % may be the effect or the level left
Plasmodium berghei [24] = test: Antimalarial activity against GFP-transfected Plasmodium berghei strain ANKA infected in NMRI mouse assessed as reduction in parasitemia at 12.5 mg/kg, po administered as multiple dose for 4 days measured 24 hrs after last treatment; type: functional; parameters: scale not given: the % may be the effect or the level left
Plasmodium berghei [25] = test: Antimalarial activity against GFP-transfected Plasmodium berghei strain ANKA infected in NMRI mouse assessed as reduction in parasitemia at 25 mg/kg, po administered as single dose for 4 days measured 24 hrs after last treatment; type: functional; parameters: scale not given: the % may be the effect or the level left
Plasmodium berghei [26] = test: Antimalarial activity against GFP-transfected Plasmodium berghei strain ANKA infected in NMRI mouse assessed as reduction in parasitemia at 50 mg/kg, po administered as multiple dose for 4 days measured 24 hrs after last treatment; type: functional; parameters: scale not given: the % may be the effect or the level left
Plasmodium berghei [27] = test: Antimalarial activity against GFP-transfected Plasmodium berghei strain ANKA infected in NMRI mouse assessed as increase in median survival time at 3 mg/kg, po administered as single dose for 4 days measured 24 hrs after last treatment (reference value: 6.5 days ); type: functional
Plasmodium berghei [28] = test: Antimalarial activity against GFP-transfected Plasmodium berghei strain ANKA infected in NMRI mouse assessed as increase in median survival time at 6 mg/kg, po administered as multiple dose for 4 days measured 24 hrs after last treatment (reference value: 6.5 days ); type: functional
Plasmodium berghei [29] = test: Antimalarial activity against GFP-transfected Plasmodium berghei strain ANKA infected in NMRI mouse assessed as increase in median survival time at 12.5 mg/kg, po administered as multiple dose for 4 days measured 24 hrs after last treatment (reference value: 6.5 days ); type: functional
Plasmodium berghei [30] = test: Antimalarial activity against GFP-transfected Plasmodium berghei strain ANKA infected in NMRI mouse assessed as increase in median survival time at 25 mg/kg, po administered as multiple dose for 4 days measured 24 hrs after last treatment (reference value: 6.5 days ); type: functional
Plasmodium berghei [31] = test: Antimalarial activity against GFP-transfected Plasmodium berghei strain ANKA infected in NMRI mouse assessed as increase in median survival time at 50 mg/kg, po administered as multiple dose for 4 days measured 24 hrs after last treatment (reference value: 6.5 days ); type: functional
Rattus norvegicus [32] = test: Apparent half life in fasted Sprague-Dawley rat assessed as 1-(2-Ethylaminoethylamino)-3-[4-(trifluoromethyl)phenyl]- pyrido[1,2-a]benzimidazole-4-carbonitrile level at 5 mg/kg, iv after 48 hrs by LC-MS analysis; type: ADME, organism-based; parameters: dose 5 mg/kg, route intravenous; conditions: in vivo
Rattus norvegicus [33] = test: Drug excretion in fasted Sprague-Dawley rat urine assessed as 1-(2-Ethylaminoethylamino)-3-[4-(trifluoromethyl)phenyl]- pyrido[1,2-a]benzimidazole-4-carbonitrile level at 5 mg/kg, iv after 48 hrs by LC-MS analysis; type: ADME, organism-based; parameters: dose 5 mg/kg, route intravenous; conditions: in vivo
Plasmodium berghei [34] = test: Antimalarial activity against GFP-transfected Plasmodium berghei strain ANKA infected in NMRI mouse assessed as increase in mean survival time at 25 mg/kg, po administered as single dose (reference value: 5 days )
Plasmodium berghei [35] = test: Antimalarial activity against GFP-transfected Plasmodium berghei strain ANKA infected in NMRI mouse assessed as increase in mean survival time at 50 mg/kg, po administered as single dose (reference value: 5 days )
Rattus norvegicus [36] = test: Apparent volume of distribution in fasted Sprague-Dawley rat plasma assessed as 1-(2-Ethylaminoethylamino)-3-[4-(trifluoromethyl)phenyl]- pyrido[1,2-a]benzimidazole-4-carbonitrile level at 5 mg/kg, iv after 48 hrs by LC-MS analysis; conditions: in vivo

CCNCCNc1cc(-c2ccc(C(F)(F)F)cc2)c(C#N)c2nc3ccccc3n12.Cl.Cl
Activity (Plasmodium berghei [1]): 30.78%
microsomal CLint [2]: 5.4 µL/min/mg
microsomal CLint [3]: 12.7 µL/min/mg
microsomal CLint [4]: 6.1 µL/min/mg
Tmax (Rattus norvegicus [5]): 16 h
AUClast (Rattus norvegicus [6]): 2076 µM·min
AUClast (Rattus norvegicus [7]): 1000 µM·min
Cmax (Rattus norvegicus [8]): 950 nM
Activity (Rattus norvegicus [9]): 0.21%
PPB (Plasma [10]): 98.3%
PPB (Plasma [11]): 95.3%
Activity (Plasmodium berghei [12]): 50.24%
Activity (Plasmodium berghei [13]): 71.22%
Activity (Plasmodium berghei [14]): 79.79%
Activity (Plasmodium berghei [15]): 23.51%
Activity (Plasmodium berghei [16]): 55.45%
Activity (Plasmodium berghei [17]): 62.25%
Activity (Plasmodium berghei [18]): 68.92%
half-life [19]: 2.28 h
half-life [20]: 4.74 h
half-life [21]: 5.35 h
Activity (Plasmodium berghei [22]): 0%
Activity (Plasmodium berghei [23]): 38.35%
Activity (Plasmodium berghei [24]): 80.73%
Activity (Plasmodium berghei [25]): 95.72%
Activity (Plasmodium berghei [26]): 95.56%
MSD (Plasmodium berghei [27]): 4 days
Activity (Plasmodium berghei [28]): 7 days
Activity (Plasmodium berghei [29]): 14 days
Activity (Plasmodium berghei [30]): 14.3 days
Activity (Plasmodium berghei [31]): 14 days
t1/2(app) (Rattus norvegicus [32]): 16.3 h
Activity (Rattus norvegicus [33]): 1.13%
MSD (Plasmodium berghei [34]): 13.3 days
MSD (Plasmodium berghei [35]): 12.7 days
Vz (Rattus norvegicus [36]): 7.5 L/kg
